Test results taken from PubChem BioAssay AID328 (DTP/NCI, 2004).
“And” between values parts separate entries of the source, which are not always exact repeats. Equal values may be shown once. Toxic doses and inconclusive results are not listed.

System: BDF1 mice, P388 leukemia ip, median survival T/C
Assay: NCI In Vivo Anticancer Drug Screen. Data for tumor model P388 Leukemia (intraperitoneal) in B6D2F1 (BDF1) mice
Conditions: endpoint: median survival time, higher = longer survival
Summary of the method: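 Read-out is survival of treated animals expressed relative to the vehicle group, as a T/C ratio.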

[1] = dose: 100.0 mg/kg/injection, schedule: Q04DX003 (ip), vehicle: saline sonified
[2] = dose: 12.5 mg/kg/injection, schedule: Q01DX009 (ip), vehicle: saline
[3] = dose: 50.0 mg/kg/injection, schedule: Q04DX003 (ip), vehicle: saline
[4] = dose: 50.0 mg/kg/injection, schedule: Q01DX009 (ip), vehicle: saline with Tween-80
[5] = dose: 100.0 mg/kg/injection, schedule: Q01DX009 (ip), vehicle: saline with Tween-80
[6] = dose: 200.0 mg/kg/injection, schedule: Q01DX009 (ip), vehicle: saline with Tween-80
[7] = dose: 25.0 mg/kg/injection, schedule: Q04DX003 (ip), vehicle: saline sonified
[8] = dose: 50.0 mg/kg/injection, schedule: Q04DX003 (ip), vehicle: saline sonified
[9] = dose: 12.5 mg/kg/injection, schedule: Q04DX003 (ip), vehicle: saline sonified

In the case of `CC(C)C(Sc1nc(N)nc2nc[nH]c12)C(=O)O` (centres undefined), the T/C [1] is reported as 110 % of control, the T/C (dose: 200.0 mg/kg/injection, schedule: Q04DX003 (ip), vehicle: saline sonified) is reported as 120 % of control and the T/C (dose: 400.0 mg/kg/injection, schedule: Q04DX003 (ip), vehicle: saline sonified) is reported as 105 % of control.
In the case of `CC(=O)NC1=C(N2CC2C)C(=O)C(NC(C)=O)=C(N2CC2C)C1=O` (centres undefined), the T/C (dose: 0.62 mg/kg/injection, schedule: Q01DX009 (ip), vehicle: saline) is reported as 119 % of control, the T/C (dose: 1.25 mg/kg/injection, schedule: Q01DX009 (ip), vehicle: saline) is reported as 114 % of control and 115 % of control and the T/C (dose: 4.4 mg/kg/injection, schedule: Q04DX003 (ip), vehicle: saline) is reported as 118 % of control. For the same compound, the T/C (dose: 5.0 mg/kg/injection, schedule: Q01DX009 (ip), vehicle: saline) was 233 % of control and 215 % of control, the T/C (dose: 5.56 mg/kg/injection, schedule: Q01DX009 (ip), vehicle: saline) was 159 % of control and the T/C (dose: 6.6 mg/kg/injection, schedule: Q04DX003 (ip), vehicle: saline) was 104 % of control. For the same compound, the T/C (dose: 8.33 mg/kg/injection, schedule: Q01DX009 (ip), vehicle: saline) was 236 % of control, the T/C (dose: 11.0 mg/kg/injection, schedule: Q04DX003 (ip), vehicle: saline) was 166 % of control and 215 % of control and the T/C [2] was 163 % of control. For the same compound, the T/C (dose: 15.0 mg/kg/injection, schedule: Q04DX003 (ip), vehicle: saline) was 163 % of control, the T/C (dose: 16.5 mg/kg/injection, schedule: Q04DX003 (ip), vehicle: saline) was 230 % of control and 222 % of control and the T/C (dose: 18.7 mg/kg/injection, schedule: Q01DX009 (ip), vehicle: saline) was 90 % of control. The T/C (dose: 25.0 mg/kg/injection, schedule: Q04DX003 (ip), vehicle: saline) was 255 % of control and 110 % of control, the T/C (dose: 37.5 mg/kg/injection, schedule: Q04DX003 (ip), vehicle: saline) was 183 % of control and the T/C [3] was 86 % of control and 100 % of control.
In the case of `CCCCCCCC(=O)NC1CC(O[C@H]2C[C@](O)(C(=O)CO)Cc3c(O)c4c(c(O)c32)C(=O)c2c(OC)cccc2C4=O)OC(C)C1O` (some centres undefined), the T/C (dose: 0.78 mg/kg/injection, schedule: Q01DX009 (ip), vehicle: water) is reported as 104 % of control, the T/C (dose: 6.25 mg/kg/injection, schedule: Q01DX009 (ip), vehicle: water) is reported as 150 % of control and the T/C (dose: 12.5 mg/kg/injection, schedule: Q01DX009 (ip), vehicle: water) is reported as 156 % of control. The T/C (dose: 18.8 mg/kg/injection, schedule: Q04DX003 (ip), vehicle: water) was 106 % of control, the T/C (dose: 25.0 mg/kg/injection, schedule: Q01DX009 (ip), vehicle: water) was 177 % of control and the T/C (dose: 37.5 mg/kg/injection, schedule: Q04DX003 (ip), vehicle: water) was 109 % of control. The T/C (dose: 75.0 mg/kg/injection, schedule: Q04DX003 (ip), vehicle: water) was 104 % of control and 123 % of control and the T/C (dose: 150.0 mg/kg/injection, schedule: Q04DX003 (ip), vehicle: water) was 119 % of control.
With `CN1CCC(C=C2c3ccccc3Sc3ccccc32)C1` (centres undefined) the T/C (dose: 6.25 mg/kg/injection, schedule: Q01DX009 (ip), vehicle: saline) was 99 % of control, the T/C [2] was 95 % of control and the T/C (dose: 25.0 mg/kg/injection, schedule: Q01DX009 (ip), vehicle: saline) was 100 % of control. The T/C (dose: 50.0 mg/kg/injection, schedule: Q01DX009 (ip), vehicle: saline) was 101 % of control.
With `O=C(c1ccccc1)C(Cl)C(=O)c1ccccc1` the T/C (dose: 50.0 mg/kg/injection, schedule: Q01DX001 (ip), vehicle: saline with Tween-80) was 108 % of control, the T/C (dose: 65.0 mg/kg/injection, schedule: Q01DX001 (ip), vehicle: saline with Tween-80) was 120 % of control and the T/C (dose: 150.0 mg/kg/injection, schedule: Q01DX001 (ip), vehicle: saline with Tween-80) was 101 % of control. The T/C (dose: 200.0 mg/kg/injection, schedule: Q01DX001 (ip), vehicle: saline with Tween-80) was 105 % of control.
In the case of `CCCC(CC)C(C(=O)OCC)C1=NC(C)(C)CC(C)O1` (centres undefined), the T/C (dose: 12.5 mg/kg/injection, schedule: Q01DX001 (ip), vehicle: saline sonified) is reported as 100 % of control, the T/C (dose: 25.0 mg/kg/injection, schedule: Q01DX001 (ip), vehicle: saline sonified) is reported as 100 % of control and the T/C (dose: 50.0 mg/kg/injection, schedule: Q01DX001 (ip), vehicle: saline sonified) is reported as 100 % of control.
For `CCP(=Nc1cc(C(C)(C)C)cc(C(C)(C)C)c1O)(c1ccccc1)c1ccccc1`, the T/C [4] was 96 % of control, the T/C [5] was 91 % of control and the T/C [6] was 89 % of control.
`CN(C)/C=N/n1cnc2c(ncn2C2OC(CO)C(O)C2O)c1=O` (centres undefined) was tested, and the T/C [3] was 108 % of control, the T/C (dose: 100.0 mg/kg/injection, schedule: Q04DX003 (ip), vehicle: saline) was 108 % of control and the T/C (dose: 200.0 mg/kg/injection, schedule: Q04DX003 (ip), vehicle: saline) was 111 % of control. The T/C (dose: 400.0 mg/kg/injection, schedule: Q04DX003 (ip), vehicle: saline) was 101 % of control.
For `NC(=O)C12CCCCC1CCC(=O)C2` (centres undefined), the T/C [7] was 105 % of control, the T/C [8] was 100 % of control and the T/C [1] was 95 % of control.
In the case of `CC(C)(C)c1ccc(OCCCOc2ccc(C(=O)O)cc2)cc1`, the T/C [9] is reported as 95 % of control, the T/C [7] is reported as 95 % of control and the T/C [8] is reported as 91 % of control.
With `c1ccc(COc2ccc(OCc3ccccc3)cc2)cc1` the T/C (dose: 75.0 mg/kg/injection, schedule: Q04DX003 (ip), vehicle: saline with Tween-80) was 104 % of control, the T/C (dose: 150.0 mg/kg/injection, schedule: Q04DX003 (ip), vehicle: saline with Tween-80) was 109 % of control and the T/C (dose: 300.0 mg/kg/injection, schedule: Q04DX003 (ip), vehicle: saline with Tween-80) was 104 % of control.
`CC(=O)NN(c1ccccc1)c1ccccc1` was tested, and the T/C (dose: 50.0 mg/kg/injection, schedule: Q04DX003 (ip), vehicle: Klucel (hydroxypropylcellulose) (HPC)) was 112 % of control, the T/C (dose: 100.0 mg/kg/injection, schedule: Q04DX003 (ip), vehicle: Klucel (hydroxypropylcellulose) (HPC)) was 91 % of control and the T/C (dose: 200.0 mg/kg/injection, schedule: Q04DX003 (ip), vehicle: Klucel (hydroxypropylcellulose) (HPC)) was 108 % of control.
In the case of `CC(=O)[C@@]1(O)CC[C@H]2[C@@H]3C[C@H](C)C4=CC(=O)C=C[C@]4(C)[C@@]3(F)[C@@H](O)C[C@@]21C`, the T/C (dose: 5.0 mg/kg/injection, schedule: Q01DX010 (sc), vehicle: steriod suspending solution) is reported as 109 % of control, the T/C (dose: 10.0 mg/kg/injection, schedule: Q01DX010 (sc), vehicle: steriod suspending solution) is reported as 109 % of control and the T/C (dose: 20.0 mg/kg/injection, schedule: Q01DX010 (sc), vehicle: steriod suspending solution) is reported as 118 % of control. For the same compound, the T/C (dose: 80.0 mg/kg/injection, schedule: Q01DX010 (sc), vehicle: steriod suspending solution) was 118 % of control, the T/C (dose: 320.0 mg/kg/injection, schedule: Q01DX010 (sc), vehicle: steriod suspending solution) was 95 % of control and 112 % of control and the T/C (dose: 640.0 mg/kg/injection, schedule: Q01DX010 (sc), vehicle: steriod suspending solution) was 112 % of control.
With `FC1(F)C(F)(F)C(Cl)(Cl)C1(Cl)Cl` the T/C (dose: 75.0 mg/kg/injection, schedule: Q01DX001 (ip), vehicle: saline) was 100 % of control, the T/C (dose: 150.0 mg/kg/injection, schedule: Q01DX001 (ip), vehicle: saline) was 109 % of control and the T/C (dose: 300.0 mg/kg/injection, schedule: Q01DX001 (ip), vehicle: saline) was 104 % of control.
In the case of `CCC[CH2][Hg][Cl]`, the T/C (dose: 6.25 mg/kg/injection, schedule: Q04DX003 (ip), vehicle: saline sonified) is reported as 115 % of control, the T/C (dose: 11.0 mg/kg/injection, schedule: Q01DX009 (ip), vehicle: saline with Tween-80) is reported as 100 % of control and the T/C (dose: 12.5 mg/kg/injection, schedule: Q01DX009 (ip), vehicle: saline with Tween-80) is reported as 109 % of control. For the same compound, the T/C [9] was 110 % of control, the T/C (dose: 16.5 mg/kg/injection, schedule: Q01DX009 (ip), vehicle: saline with Tween-80) was 150 % of control and the T/C (dose: 16.5 mg/kg/injection, schedule: Q04DX003 (ip), vehicle: saline sonified) was 113 % of control. The T/C [7] was 104 % of control and the T/C (dose: 37.5 mg/kg/injection, schedule: Q04DX003 (ip), vehicle: saline sonified) was 118 % of control.
`CCCCOCN1CCCCC1` was tested, and the T/C (dose: 50.0 mg/kg/injection, schedule: Q04DX003 (ip), vehicle: saline with Tween-80) was 108 % of control, the T/C (dose: 100.0 mg/kg/injection, schedule: Q04DX003 (ip), vehicle: saline with Tween-80) was 120 % of control and the T/C (dose: 200.0 mg/kg/injection, schedule: Q04DX003 (ip), vehicle: saline with Tween-80) was 104 % of control.
`N#Cc1cccc(CC(O)(c2ccccc2)c2ccccc2)c1` was tested, and the T/C [4] was 89 % of control, the T/C [5] was 87 % of control and the T/C [6] was 95 % of control.
